{
  "source": "patent US20250041291A1",
  "about": "“COMPOSITIONS AND METHODS FOR TREATING CANCER” (Emmaus Life Sciences, Inc, priority 2021, published 2025)",
  "assay_type_in_all_cases": "cell-based",
  "key": {"[1]": {"tested_on": "human adipose stromal cells (ASC)", "test": "cell number (proliferation) of human adipose stromal cells after 24 h treatment", "conditions": "25% FBS; for ASC growth / ASC number as compared to vehicle control: at 100 μM", "description": "(§1) MOLM-13 cells were cultured in RPMI1640, red phenol free, in presence of 2, 10 and 25% of fetal bovine serum (FBS). 25% FBS simulates the level of serum present in the blood. Adipose stromal cells (ASC) and human fibroblast primary cells were used as reference controls. Compound A, at various concentrations (0.05 to 100 μM), was added to the cells and incubated for 24 h, with or without the co-treatment with olaparib (a PARP inhibitor, Ola). Olaparib or ibrutinib (a BTK inhibitor) alone was also tested with these cells."}, "[2]": {"tested_on": "human adipose stromal cells (ASC)", "test": "caspase 3/7 activity (apoptosis) in human adipose stromal cells", "conditions": "25% FBS, 24 h; for activity of caspase 3 or 7 / induction of apoptosis in ASC: all tested concentrations (up to 100 μM)", "description": "as §1"}, "[3]": {"tested_on": "MOLM-13 cells (adult acute myeloid leukemia) expressing the FLT3-ITD mutation", "test": "cell number (proliferation) of MOLM-13 cells expressing FLT3-ITD", "description": "(§2) In this example, MOLM-13 cells (adult acute myeloid leukemia) expressing the FLT3-ITD mutation were used to test Compound A to decrease their cell proliferation and increase their apoptosis level. Midostaurin (mido), an inhibitor of FLT3, was used as a positive control.\nas §1"}, "[4]": {"tested_on": "MOLM-13 cells (adult acute myeloid leukemia) expressing the FLT3-ITD mutation", "test": "caspase 3/7 activity (apoptosis) in MOLM-13 cells expressing FLT3-ITD", "description": "as §2, §1"}, "[5]": {"tested_on": "MWCL-1 cells (adult Waldenström macroglobulinemia cells) expressing the Myd88 L265P mutation", "test": "caspase 3/7 activity (apoptosis) in MWCL-1 cells expressing Myd88 L265P", "description": "(§3) In this study, MWCL-1 cells (adult Waldenström macroglobulinemia cells) expressing the Myd88 L265P mutation were used to test different drugs for their effects on cell proliferation and apoptosis. Midostaurin (an inhibitor of FLT3, mido) was used as reference control.\n(§4) MWCL-1 cells were cultured in RPMI1640, in presence of 2, 10 and 25% of fetal bovine serum (FBS). The number of MWCL-1 cells decreased only at higher Compound A concentration (50 and 100 μM), during a 24 h treatment, at 2, 10 and 25% FBS (FIGS. 6A, 7A and 8A). Also, the levels of caspase 3/7 activity in the cells were elevated only at the higher concentrations (50 and 100 μM, FIGS. 6B, 7B and 8B), which is consistent with the decreased cell growth."}, "[6]": {"tested_on": "human fibroblast primary cells", "test": "cell growth (proliferation) of human fibroblast primary cells", "conditions": "at 100 μM, but not at lower concentrations; 25% FBS; 24 h", "description": "as §1"}, "[7]": {"tested_on": "human fibroblast primary cells", "test": "caspase 3/7 activity (apoptosis) in human fibroblast primary cells", "conditions": "25% FBS, 24 h", "description": "as §1"}, "[8]": {"tested_on": "MWCL-1 cells (adult Waldenström macroglobulinemia cells) expressing the Myd88 L265P mutation", "test": "cell number (proliferation) of MWCL-1 cells expressing Myd88 L265P", "description": "as §3, §4"}, "[9]": {"conditions": "alone, at 10 μM, 2, 10 or 25% FBS"}, "[10]": {"conditions": "1 to 100 μM, dose-dependent, 2% or 10% FBS, 24 h"}},
  "data": [
    {"compound": "4-[(3-[(4-cyclopropylcarbonyl)piperazin-1-yl]carbonyl)-4-fluorophenyl]methyl(2H)phthalazin-1-one [olaparib, reference compound]", "values": [
      {"measurement": "ASC growth / ASC number as compared to vehicle control", "setting": "[1]", "value": "inhibited ASC growth"},
      {"measurement": "activity of caspase 3 or 7 / induction of apoptosis in ASC", "setting": "[2]", "value": "did not induce apoptosis"},
      {"measurement": "numbers of MOLM-13 cells", "setting": "[3]; [9]", "value": "did not decrease"},
      {"measurement": "apoptotic levels of MOLM-13 cells", "setting": "[4]; [9]", "value": "increased the apoptotic levels"},
      {"measurement": "caspase 3/7 activity in MWCL-1 cells", "setting": "[5]; at 50, 100 μM, 25% FBS", "value": "increased the caspase 3/7 activity"}
    ]},
    {"compound": "CN1CCN(C(=O)CCCc2cn(-c3ccccc3)c(NC(=O)c3cccc(-c4cnn(C)c4)c3)n2)CC1", "note": "[Compound A, 3-(1-methyl-1H-pyrazol-4-yl)-N-(4-(4-(4-methylpiperazin-1-yl)-4-oxobutyl)-1-phenyl-1H-imidazol-2-yl)benzamide]", "values": [
      {"measurement": "cell number increase of human ASC as compared to vehicle control", "setting": "[1]; at 50 and 100 μM but not at lower concentrations", "value": "slower cell number increase"},
      {"measurement": "activity of caspase 3 or 7 / induction of apoptosis in ASC", "setting": "[2]", "value": "did not change the activity of caspase 3 or 7"},
      {"measurement": "cell growth of human fibroblast primary cells", "setting": "[6]", "value": "slower cell growth"},
      {"measurement": "apoptosis of the fibroblasts", "setting": "[7]; tested concentrations", "value": "No apoptosis"},
      {"measurement": "numbers of MOLM-13 cells", "setting": "[3]; [10]", "value": "decreased"},
      {"measurement": "response of MOLM-13 cells to anti-cancer effects (proliferation and apoptosis)", "setting": "[3]; 25% FBS, 24 h", "value": "responded to the anti-cancer effects"},
      {"measurement": "efficiency compared with the other compound (cell numbers and caspase 3/7 activity, MOLM-13)", "setting": "[3]; at higher doses", "value": "more efficient at higher doses than midostaurin"},
      {"measurement": "level of caspase 3/7 activity in MOLM-13 cells", "setting": "[4]; [10]", "value": "elevated"},
      {"measurement": "efficiency compared with midostaurin (MWCL-1 cell number and caspase 3/7 activity)", "setting": "[8]; both at 100 μM, 25% FBS", "value": "more efficient than midostaurin"},
      {"measurement": "number of MWCL-1 cells", "setting": "[8]; only at 50 and 100 μM, 24 h treatment, 2, 10 and 25% FBS", "value": "decreased"},
      {"measurement": "levels of caspase 3/7 activity in MWCL-1 cells", "setting": "[5]; only at 50 and 100 μM, 24 h, 2, 10 and 25% FBS", "value": "elevated"}
    ]},
    {"compound": "C=CC(=O)N1CCC[C@@H](n2nc(-c3ccc(Oc4ccccc4)cc3)c3c(N)ncnc32)C1", "note": "[ibrutinib, 1-[(3R)-3-[4-Amino-3-(4-phenoxyphenyl)-1H-pyrazolo[3,4-d]pyrimidin-1-yl]piperidin-1-yl]prop-2-en-1-one]", "values": [
      {"measurement": "ASC growth / ASC number as compared to vehicle control", "setting": "[1]", "value": "decrease of ASC number"},
      {"measurement": "apoptosis (caspase 3/7 activities) of ASC", "setting": "[2]; at 100 μM, but not at lower concentrations", "value": "induced apoptosis"},
      {"measurement": "caspase 3/7 activities in the fibroblasts", "setting": "[7]; at 100 μM", "value": "increased the caspase 3/7 activities"}
    ]}
  ]
}
